Test results as given in ChEMBL document CHEMBL1759936, “Oxindole derivatives as inhibitors of TAK1 kinase” (Bioorg Med Chem Lett, 2011).
Converted amounts (≈) assume the structure as drawn.

molecular target: TAK1/TAB1 (Homo sapiens, UniProt O43318); test: Competitive inhibition of recombinant TAK1-TAB1 assessed as [33P]gamma-ATP incorporation into substrate histone H1 peptide by filter plate assay; format: protein-complex assay
Sequence (Q15750 whole entry, one chain of several): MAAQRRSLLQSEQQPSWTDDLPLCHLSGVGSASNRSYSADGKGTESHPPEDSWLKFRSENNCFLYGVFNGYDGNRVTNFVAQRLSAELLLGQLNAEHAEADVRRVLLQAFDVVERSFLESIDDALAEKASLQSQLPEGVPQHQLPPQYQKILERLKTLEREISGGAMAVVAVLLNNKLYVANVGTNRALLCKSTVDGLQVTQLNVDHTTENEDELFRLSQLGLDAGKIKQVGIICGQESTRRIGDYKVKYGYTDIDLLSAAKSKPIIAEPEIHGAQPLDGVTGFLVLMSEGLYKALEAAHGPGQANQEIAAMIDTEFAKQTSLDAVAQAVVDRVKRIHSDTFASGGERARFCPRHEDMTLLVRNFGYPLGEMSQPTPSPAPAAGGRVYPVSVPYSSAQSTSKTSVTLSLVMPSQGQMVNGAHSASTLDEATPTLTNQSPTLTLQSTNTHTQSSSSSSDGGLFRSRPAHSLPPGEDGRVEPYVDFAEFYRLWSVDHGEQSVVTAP

Point of comparison: `O=C1Nc2ccccc2/C1=C\c1ccc(O)c(O)c1O`, IC50 1.7 µM. Against it:
- O=C1Nc2ccc(OC(F)(F)F)cc2/C1=N/N=C1\SCC(=O)N1c1ccc(O)cc1 — 1.8-fold higher, 3 µM
- CCC1S/C(=N\N=C2/C(=O)Nc3ccc(Cl)cc32)N(c2ccc(O)cc2)C1=O (configuration not stated) — higher, > 5 µM
- O=C1Nc2ccccc2/C1=N/N=C1\SCC(=O)N1CC1CCCN1 (configuration not stated) — 18-fold higher, 30 µM
- CN(C)c1ccc(N2C(=O)CS/C2=N\N=C2/C(=O)Nc3ccccc32)cc1 — higher, > 50 µM
- O=C1Nc2ccc(Br)cc2/C1=N/N=C1\SCC(=O)N1c1ccc(O)cc1 — 190-fold lower, 0.0089 µM
- O=C1Nc2ccccc2/C1=N/N=C1\SCC(=O)N1c1cnccc1O — 15-fold higher, 25 µM
- O=C1CS/C(=N\N=C2/C(=O)Nc3ccccc32)N1 — higher, > 5 µM
- O=C1Nc2ccccc2/C1=C/C(=O)c1ccccc1 — higher, > 5 µM
- O=C1Nc2ccccc2/C1=N/N=C1\SCC(=O)N1c1ccc(O)cc1 — 37-fold lower, 0.046 µM
- O=C1Nc2ccc(F)cc2/C1=N/N=C1\SCC(=O)N1c1ccc(O)cc1 — 17-fold lower, 0.099 µM
- O=C1Nc2ccccc2/C1=C/C(=O)c1cccc(O)c1 — 2.4-fold higher, 4.1 µM
- O=C1Nc2ccccc2/C1=N/N=C1\SCC(=O)N1c1cccc(O)c1 — 17-fold higher, 29 µM
- CC(C)C1S/C(=N\N=C2/C(=O)Nc3ccc(Cl)cc32)N(c2ccc(O)cc2)C1=O (configuration not stated) — higher, > 5 µM
- COc1ccc(N2C(=O)CS/C2=N\N=C2/C(=O)Nc3ccccc32)cc1 — higher, > 5 µM
- O=C1Nc2ccccc2/C1=C/C(=O)c1ccc(O)c(O)c1 — 3-fold lower, 0.56 µM
- O=C1Nc2ccccc2/C1=C\c1ccc(O)c(O)c1 — higher, > 5 µM
- O=C1Nc2ccccc2/C1=N/N=C1\SCC(=O)N1Cc1ccncc1 — 4.8-fold higher, 8.2 µM
- O=C1Nc2ccccc2/C1=N/N=C1\SCC(=O)N1c1ccccc1O — 3.4-fold higher, 5.8 µM
- Cc1ccc2c(c1)/C(=N/N=C1\SCC(=O)N1c1ccc(O)cc1)C(=O)N2 — 17-fold lower, 0.098 µM
- CC1S/C(=N\N=C2/C(=O)Nc3ccc(Cl)cc32)N(c2ccc(O)cc2)C1=O (configuration not stated) — 2.7-fold lower, 0.63 µM
- O=C1Nc2ccc(Cl)cc2/C1=N/N=C1\SCC(=O)N1c1ccc(O)cc1 — 81-fold lower, 0.021 µM

molecular target: TAK1/TAB1 (Homo sapiens) (UniProt Q15750+O43318); test: Competitive inhibition of recombinant TAK1-TAB1 assessed as [33P]gamma-ATP incorporation into substrate histone H1 peptide at 10 uM by filter plate assay; format: protein-complex assay

Point of comparison: `O=C1Nc2ccccc2/C1=C/C(=O)c1ccc(O)cc1O`, inhibition 21%. Against it:
- O=C1Nc2ccccc2/C1=N/N=C1\N=NCN1c1ccc(O)cc1 — lower, 0%
- Cc1c(Cl)ccc2c1NC(=O)/C2=N\N=C1/SCC(=O)N1c1ccc(O)cc1 — lower, 0%
- C/C(C(=O)c1ccccc1)=C1/C(=O)Nc2ccccc21 — higher, 39%
- O=C1Nc2ccccc2/C1=N/N=C1\SCC(=O)N1c1ccc(OCc2ccccc2)cc1 — lower, 6%
- O=C1Nc2ccccc2/C1=N/N=C1\SCC(=O)N1c1cccc(Oc2ccccc2)c1 — lower, 0%
- O=C1Nc2ccccc2C1c1ccnc(Nc2ccc(O)cc2)n1 (configuration not stated) — higher, 39%
- O=C1Nc2ccccc2C1c1ccnc(Nc2ccccc2O)n1 (configuration not stated) — higher, 52%
- Cc1ccc(N2C(=O)CS/C2=N\N=C2/C(=O)Nc3ccccc32)cc1 — lower, 0%
- O=C1Nc2cccc(Cl)c2/C1=N/N=C1\SCC(=O)N1c1ccc(O)cc1 — lower, 4%
- O=C1Nc2ccccc2/C1=C\c1c[nH]cn1 — higher, 32%

tested on: not listed separately; test: Solubility in phosphate buffer at pH 7.4; format: physicochemical

Point of comparison: `O=C1Nc2ccccc2/C1=N/N=C1\SCC(=O)N1c1ccc(O)cc1`, solubility 65 µM (≈ 22.9 µg/mL). Against it:
- O=C1Nc2ccc(Br)cc2/C1=N/N=C1\SCC(=O)N1c1ccc(O)cc1 — 21-fold lower, 3.1 µM (≈ 1.34 µg/mL)

tested on: HeLa; test: Cytotoxicity against human HeLa cells; format: cell-based

Compound `O=C1Nc2ccccc2/C1=N/N=C1\SCC(=O)N1c1ccc(O)cc1` has an IC50 greater than 100 µM.

molecular target: T1, Mitogen-activated protein kinase kinase kinase 7 (Homo sapiens) (UniProt O43318); test: Competitive inhibition of TAK1 overexpressed in Hela cells assessed as TAK1 autophosphorylation on Thr187 by ELISA
T1 sequence (whole entry): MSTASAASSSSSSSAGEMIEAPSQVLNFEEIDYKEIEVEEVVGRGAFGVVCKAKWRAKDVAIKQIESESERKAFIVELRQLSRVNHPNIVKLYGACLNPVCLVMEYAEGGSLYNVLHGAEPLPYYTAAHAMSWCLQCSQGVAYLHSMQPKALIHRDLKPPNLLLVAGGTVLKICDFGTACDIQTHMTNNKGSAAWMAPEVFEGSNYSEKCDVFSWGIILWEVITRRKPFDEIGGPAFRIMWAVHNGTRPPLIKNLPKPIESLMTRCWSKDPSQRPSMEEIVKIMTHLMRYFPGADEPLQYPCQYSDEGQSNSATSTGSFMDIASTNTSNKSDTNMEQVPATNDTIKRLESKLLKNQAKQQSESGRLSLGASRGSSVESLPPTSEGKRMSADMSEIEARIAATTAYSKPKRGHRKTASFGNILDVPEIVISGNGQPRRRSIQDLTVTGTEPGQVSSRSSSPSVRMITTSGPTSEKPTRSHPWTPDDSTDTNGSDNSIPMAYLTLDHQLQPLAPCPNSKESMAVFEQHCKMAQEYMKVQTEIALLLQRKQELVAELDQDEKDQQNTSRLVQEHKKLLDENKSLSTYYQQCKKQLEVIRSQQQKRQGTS

Work on `O=C1Nc2ccccc2/C1=N/N=C1\SCC(=O)N1c1ccc(O)cc1` yielded an IC50 of 11 µM.
